According to PubChem BioAssay AID190 (DTP/NCI, 2004):
Where “and” joins values, the source holds several entries; their conditions need not be identical. Equal values may be shown once. Inconclusive results and toxic doses are left out.

Test system: AKR/Lw mice, AKR lymphoma ip, median survival T/C
Test: NCI In Vivo Anticancer Drug Screen. Data for tumor model Lymphoma AKR (Transplanted) (intraperitoneal) in AKR/Lw mice
Conditions: endpoint: median survival time, higher = longer survival
Protocol: The antitumor activity of compounds was measured in mice bearing transplantable tumors. Survival or tumor size were measured and the results are expressed as the measurement made in the treated group (T) divided by the measurement made in the vehicle treated control group (C). The tumor model used in this assay is Lymphoma AKR (Transplanted) (intraperitoneal) in AKR/Lw mice

[1] = dose: 0.75 mg/kg/injection, schedule: Q01DX009 (ip), vehicle: saline
[2] = dose: 5.0 mg/kg/injection, schedule: Q01DX009 (ip), vehicle: saline
[3] = dose: 25.0 mg/kg/injection, schedule: Q01DX001 (ip), vehicle: saline
[4] = dose: 25.0 mg/kg/injection, schedule: Q04DX003 (ip), vehicle: saline
[5] = dose: 50.0 mg/kg/injection, schedule: Q01DX001 (ip), vehicle: saline
[6] = dose: 50.0 mg/kg/injection, schedule: Q04DX003 (ip), vehicle: saline
[7] = dose: 100.0 mg/kg/injection, schedule: Q01DX001 (ip), vehicle: saline
[8] = dose: 100.0 mg/kg/injection, schedule: Q04DX003 (ip), vehicle: Klucel (hydroxypropylcellulose) (HPC)
[9] = dose: 200.0 mg/kg/injection, schedule: Q01DX001 (ip), vehicle: saline
[10] = dose: 200.0 mg/kg/injection, schedule: Q04DX003 (ip), vehicle: Klucel (hydroxypropylcellulose) (HPC)
[11] = dose: 400.0 mg/kg/injection, schedule: Q04DX003 (ip), vehicle: Klucel (hydroxypropylcellulose) (HPC)
[12] = dose: 600.0 mg/kg/injection, schedule: Q01DX001 (ip), vehicle: Klucel (hydroxypropylcellulose) (HPC)
[13] = dose: 5.0 mg/kg/injection, schedule: Q01DX009 (ip), vehicle: Klucel (hydroxypropylcellulose) (HPC)
[14] = dose: 12.5 mg/kg/injection, schedule: Q01DX009 (ip), vehicle: saline

`Nc1ccn(C2OC(CO)C(O)C2O)c(=O)n1` (stereo not drawn) was tested, and the T/C (dose: 0.18 mg/kg/injection, schedule: Q01DX009 (ip), vehicle: saline) was 87 % of control, the T/C (dose: 0.25 mg/kg/injection, schedule: Q01DX015 (ip), vehicle: saline) was 86 % of control and the T/C (dose: 0.37 mg/kg/injection, schedule: Q01DX009 (ip), vehicle: saline) was 96 % of control. The T/C (dose: 0.5 mg/kg/injection, schedule: Q01DX015 (ip), vehicle: saline) was 93 % of control, the T/C [1] was 100 % of control and the T/C (dose: 1.0 mg/kg/injection, schedule: Q01DX015 (ip), vehicle: saline) was 100 % of control. The T/C (dose: 3.12 mg/kg/injection, schedule: Q04DX003 (ip), vehicle: saline) was 94 % of control, the T/C [2] was 150 % of control and the T/C (dose: 5.0 mg/kg/injection, schedule: Q03HX032 (ip), vehicle: saline) was 150 % of control. The T/C (dose: 10.0 mg/kg/injection, schedule: Q03HX032 (ip), vehicle: saline) was 150 % of control, the T/C (dose: 12.5 mg/kg/injection, schedule: Q04DX003 (ip), vehicle: saline) was 94 % of control and the T/C (dose: 15.0 mg/kg/injection, schedule: Q01DX009 (ip), vehicle: saline with Tween-80) was 97 % of control. The T/C (dose: 15.0 mg/kg/injection, schedule: Q04DX003 (ip), vehicle: saline) was 120 % of control, the T/C (dose: 18.75 mg/kg/injection, schedule: Q06HX004 (ip), vehicle: saline) was 150 % of control and the T/C (dose: 18.75 mg/kg/injection, schedule: Q06HX016 (ip), vehicle: saline) was 170 % of control. For the same molecule, the T/C (dose: 18.8 mg/kg/injection, schedule: Q04DX003 (ip), vehicle: saline) was 87 % of control, the T/C (dose: 19.0 mg/kg/injection, schedule: Q04DX003 (ip), vehicle: saline) was 100 % of control and the T/C [3] was 97 % of control. The T/C [4] was 100 % of control, the T/C (dose: 40.0 mg/kg/injection, schedule: Q06HX012 (ip), vehicle: saline) was 96 % of control and the T/C [5] was 94 % of control and 100 % of control. The T/C [6] was 100 % of control, the T/C [7] was 100 % of control and the T/C (dose: 100.0 mg/kg/injection, schedule: Q01DX009 (ip), vehicle: saline) was 87 % of control and 96 % of control. The T/C (dose: 150.0 mg/kg/injection, schedule: Q03HX016 (ip), vehicle: saline) was 59 % of control and the T/C (dose: 400.0 mg/kg/injection, schedule: Q04DX003 (ip), vehicle: saline) was 110 % of control.

In the case of `Cn1c(O)c(C=N)c(=O)[nH]c1=O`, the T/C [7] was 113 % of control, the T/C [8] was 104 % of control and the T/C [9] was 94 % of control. The T/C [10] was 93 % of control, the T/C (dose: 400.0 mg/kg/injection, schedule: Q01DX001 (ip), vehicle: saline) was 113 % of control and the T/C [11] was 97 % of control.

With `CC(=O)c1cccc(N)c1` the T/C (dose: 100.0 mg/kg/injection, schedule: Q01DX001 (ip), vehicle: Klucel (hydroxypropylcellulose) (HPC)) was 93 % of control and 105 % of control, the T/C (dose: 200.0 mg/kg/injection, schedule: Q01DX001 (ip), vehicle: Klucel (hydroxypropylcellulose) (HPC)) was 91 % of control and the T/C (dose: 400.0 mg/kg/injection, schedule: Q01DX001 (ip), vehicle: Klucel (hydroxypropylcellulose) (HPC)) was 94 % of control and 122 % of control. For the same molecule, the T/C [12] was 94 % of control.

`COc1cc([C@@H]2c3cc4c(cc3[C@@H](OC3OC5COC(C)OC5C(O)C3O)[C@H]3COC(=O)[C@H]23)OCO4)cc(OC)c1O` (stereo partly drawn) was tested, and the T/C [13] was 321 % of control.

With `CS(=O)(=O)OCCCCOS(C)(=O)=O` the T/C (dose: 0.5 mg/kg/injection, schedule: Q01DX009 (ip), vehicle: Klucel (hydroxypropylcellulose) (HPC)) was 100 % of control, the T/C [1] was 112 % of control and the T/C (dose: 1.0 mg/kg/injection, schedule: Q01DX009 (ip), vehicle: Klucel (hydroxypropylcellulose) (HPC)) was 120 % of control. The T/C (dose: 1.5 mg/kg/injection, schedule: Q01DX009 (ip), vehicle: saline) was 116 % of control, the T/C (dose: 2.0 mg/kg/injection, schedule: Q01DX009 (ip), vehicle: Klucel (hydroxypropylcellulose) (HPC)) was 120 % of control and the T/C (dose: 2.5 mg/kg/injection, schedule: Q01DX009 (ip), vehicle: saline) was 112 % of control. The T/C (dose: 3.0 mg/kg/injection, schedule: Q01DX009 (ip), vehicle: saline) was 108 % of control, the T/C (dose: 3.75 mg/kg/injection, schedule: Q01DX009 (ip), vehicle: saline) was 100 % of control and 116 % of control and the T/C (dose: 4.0 mg/kg/injection, schedule: Q01DX009 (ip), vehicle: Klucel (hydroxypropylcellulose) (HPC)) was 107 % of control. The T/C [13] was 102 % of control, the T/C [2] was 96 % of control and the T/C (dose: 7.5 mg/kg/injection, schedule: Q01DX009 (ip), vehicle: saline) was 86 % of control and 89 % of control. For the same molecule, the T/C (dose: 8.0 mg/kg/injection, schedule: Q01DX009 (ip), vehicle: Klucel (hydroxypropylcellulose) (HPC)) was 100 % of control, the T/C (dose: 8.0 mg/kg/injection, schedule: Q01DX009 (ip), vehicle: saline) was 115 % of control and the T/C (dose: 10.0 mg/kg/injection, schedule: Q01DX009 (ip), vehicle: saline) was 104 % of control. For the same molecule, the T/C (dose: 10.0 mg/kg/injection, schedule: Q04DX003 (ip), vehicle: Klucel (hydroxypropylcellulose) (HPC)) was 104 % of control, the T/C (dose: 12.5 mg/kg/injection, schedule: Q01DX001 (ip), vehicle: saline) was 102 % of control and 110 % of control (2×) and the T/C (dose: 12.5 mg/kg/injection, schedule: Q01DX009 (ip), vehicle: Klucel (hydroxypropylcellulose) (HPC)) was 89 % of control. The T/C [14] was 87 % of control, the T/C (dose: 15.0 mg/kg/injection, schedule: Q01DX009 (ip), vehicle: saline) was 105 % of control and the T/C (dose: 16.0 mg/kg/injection, schedule: Q01DX009 (ip), vehicle: saline) was 103 % of control. For the same molecule, the T/C (dose: 20.0 mg/kg/injection, schedule: Q01DX009 (ip), vehicle: saline) was 113 % of control, the T/C (dose: 20.0 mg/kg/injection, schedule: Q04DX003 (ip), vehicle: Klucel (hydroxypropylcellulose) (HPC)) was 91 % of control and the T/C [3] was 97 % of control and 100 % of control and 114 % of control. The T/C (dose: 25.0 mg/kg/injection, schedule: Q01DX009 (ip), vehicle: Klucel (hydroxypropylcellulose) (HPC)) was 89 % of control, the T/C (dose: 25.0 mg/kg/injection, schedule: Q01DX009 (ip), vehicle: saline) was 89 % of control and the T/C (dose: 25.0 mg/kg/injection, schedule: Q04DX003 (ip), vehicle: other) was 108 % of control. For the same molecule, the T/C [4] was 101 % of control, the T/C (dose: 30.0 mg/kg/injection, schedule: Q01DX009 (ip), vehicle: saline) was 104 % of control and the T/C (dose: 37.5 mg/kg/injection, schedule: Q04DX003 (ip), vehicle: saline) was 90 % of control. For the same molecule, the T/C (dose: 40.0 mg/kg/injection, schedule: Q04DX003 (ip), vehicle: Klucel (hydroxypropylcellulose) (HPC)) was 100 % of control, the T/C (dose: 50.0 mg/kg/injection, schedule: Q01DX009 (ip), vehicle: Klucel (hydroxypropylcellulose) (HPC)) was 89 % of control and the T/C (dose: 50.0 mg/kg/injection, schedule: Q04DX003 (ip), vehicle: other) was 104 % of control. For the same molecule, the T/C [6] was 109 % of control, the T/C [7] was 97 % of control and 105 % of control and the T/C [8] was 100 % of control. The T/C (dose: 100.0 mg/kg/injection, schedule: Q04DX003 (ip), vehicle: other) was 91 % of control, the T/C (dose: 100.0 mg/kg/injection, schedule: Q04DX003 (ip), vehicle: saline) was 92 % of control and the T/C [9] was 97 % of control. The T/C [10] was 105 % of control, the T/C [11] was 100 % of control and the T/C [12] was 106 % of control.

With `N=c1ccn2c(n1)OC1C(O)C(CO)OC12` (stereo not drawn) the T/C (dose: 6.0 mg/kg/injection, schedule: Q01DX009 (ip), vehicle: saline) was 105 % of control, the T/C (dose: 6.2 mg/kg/injection, schedule: Q01DX009 (ip), vehicle: saline) was 100 % of control and the T/C (dose: 12.0 mg/kg/injection, schedule: Q01DX009 (ip), vehicle: saline) was 105 % of control. The T/C [14] was 114 % of control and 120 % of control, the T/C [4] was 100 % of control and the T/C (dose: 37.5 mg/kg/injection, schedule: Q01DX009 (ip), vehicle: saline) was 111 % of control. The T/C [5] was 111 % of control, the T/C [6] was 102 % of control and the T/C [7] was 91 % of control and 117 % of control. The T/C [9] was 105 % of control and 111 % of control, the T/C (dose: 300.0 mg/kg/injection, schedule: Q01DX001 (ip), vehicle: saline) was 123 % of control and the T/C (dose: 300.0 mg/kg/injection, schedule: Q01DX009 (ip), vehicle: saline) was 153 % of control. The T/C (dose: 500.0 mg/kg/injection, schedule: Q01DX009 (ip), vehicle: saline) was 105 % of control and the T/C (dose: 600.0 mg/kg/injection, schedule: Q04DX003 (ip), vehicle: saline) was 168 % of control.
